Results reported in patent US10626421B2, “Use of uric acid for culturing bacteria sensitive to oxygen tension” (FONDATION MEDITERRANEE INFECTION, priority 2014, dated 2020).
Values joined by “and” are separate entries in the source; they are usually repeats but may differ in a detail not shown here. Equal entries are not always repeated. “Also recorded” adds a separate entry of the source. Where two headings read alike, the source gives them in different places.

What was measured:
anaerobic bacteria = experiment: Culture on Columbia medium with 5% sheep blood in ambient air; format: cell-based; conditions: 1 mg/ml; ambient air or ambient air enriched with 5% of CO2
Procedure: These geloses inoculated with anaerobic bacteria were incubated either in ambient air or in ambient air enriched with 5% of CO2. […] These tests were conducted with a Columbia medium with 5% sheep blood having the following composition for 1 liter: […]

[1] = tested on: Bacteroides thetaiotaomicron; experiment: Culture in Schaedler 0.2% agar tubes, height of growth; format: cell-based
Clostridium butirycum = experiment: Liquid hemoculture BD BACTEC Plus Aerobic/F, growth detection by CO2; format: cell-based; conditions: Aerobic with UA 400 mg/L
Procedure: Hemocultures of strict anaerobic bacteria were made, inoculated to 10^5 cfu/mL on a culture medium: BD BACTEC™ Plus Aerobic/F. comprising 25 ml of enriched Trypticase soya broth, with resines (Reference: 442192) at 37° C. in an aerobic atmosphere with uric acid a 400 mg/L and without uric acid and in an anaerobic atmosphere without uric acid. The detection of the growth was ensured by detection of the production of CO2 with the BD BACTEC™ 9000 Series Instrumented Blood Culture Systems device.

Clostridium perfringens = format: cell-based; conditions: Aerobic with UA 400 mg/L
[2] = tested on: Bacteroides thetaiotaomicron; format: cell-based
Clostridium tertium = experiment: Liquid hemoculture BD BACTEC Plus Aerobic/F, growth detection by CO2; format: cell-based; conditions: Aerobic with UA 400 mg/L
[3] = tested on: Helicobacter cinaedi strain DSMZ 5359; experiment: Aerobic culture in Schaedler medium with uric acid; conditions: without starch and glucose
[4] = single replicates, listed as UA

SMILES	growth on Columbia medium with 5% sheep blood (anaerobic bacteria)	extent of culture in deoxygenated tube ([1]; 200 μg/ml)	extent of culture in deoxygenated tube ([1]; 500 μg/ml)	growth compared with ascorbic acid ([1]; 500 μg/ml, Schaedler 0.2% agar tubes)	Averages (growth time) (Clostridium butirycum)	Growth time (Clostridium butirycum; [4])	Averages (growth time) (Clostridium perfringens)	Growth time (Clostridium perfringens; [4])	growth with uric acid alone compared with mixture of uric acid, ascorbic acid and glutathion ([2]; 0.3 g/L of uric acid alone)	culture result with production of hydrogen ([2]; aerobic conditions, 24 hour incubation, 37° C., uric acid alone 0.1, 0.2 or 0.3 g/L, or 0.1 g/L each of ascorbic acid, uric acid, glutathion)	growth with uric acid alone compared with mixture of uric acid, ascorbic acid and glutathion ([2]; uric acid alone at least 0.2 g/L)	Averages (growth time) (Clostridium tertium)	Growth time (Clostridium tertium; [4])	time until bacterium established in culture [3] [h]
O=C1O[C@H]([C@@H](O)CO)C(O)=C1O [ascorbic acid, reference compound]	Best growth	–	–	–	–	–	–	–	–	–	–	–	–	–
O=c1[nH]c(=O)c2[nH]c(=O)[nH]c2[nH]1 [uric acid, 7,9-dihydro-1H-purine-2,6,8(3H)-trione]	Best growth	practically occurs up to the surface	completely up to the surface; also recorded: growth up to the surface	identical	6.667	8 h and 6 h (2×)	6	7 h and 5 h and 6 h	greater	positive culture	equivalent	4.333	4 h (2×) and 5 h	≤ 24
